Measured values from the OligoGym collection.
Several values for one entry are separate records, joined by “and”; a condition that tells them apart may be missing. Equal values may be shown once. After the bases stand the sugars from the 5' end (letter, count) and the backbone: PS all phosphorothioate, else s phosphorothioate and o phosphodiester by linkage. Methylation of C is not given here. e = 2'-O-(2-methoxyethyl) (MOE); k = constrained ethyl (cEt); d = 2'-deoxy (DNA)

Target: IRF4
Conditions: ASO, MM.1R, 0.074 µM

Row | Sequence | target mRNA inhibition
1 | TCTATAGTGTTCCAGG (sugars kkdddddddddekeke, PS) | 5%

Same assay, conditions: ASO, MM.1R, 0.222 µM

Row | Sequence | target mRNA inhibition
2 | TCTATAGTGTTCCAGG (sugars kkdddddddddekeke, PS) | 17%

Same assay, conditions: ASO, MM.1R, 0.666 µM

Row | Sequence | target mRNA inhibition
3 | TCTATAGTGTTCCAGG (sugars kkdddddddddekeke, PS) | 37%

Same assay, conditions: ASO, MM.1R, 1 µM

Row | Sequence | target mRNA inhibition
4 | TATTTATGAGCTTCCA (sugars k3 d10 k3, PS) | 21%
5 | TCACTACCTGCAGCCA (sugars k3 d10 k3, PS) | 6%
6 | TCAGAATGTTTCGACA (sugars k3 d10 k3, PS) | 6%
7 | TCAGTTACTCACGAGC (sugars k3 d10 k3, PS) | -3%
8 | TCATGTAAAGTCTGCT (sugars k3 d10 k3, PS) | 21%
9 | TCCAAAGGGTTCAGTG (sugars k3 d10 k3, PS) | 7%
10 | TCCACTACCATATTGG (sugars k3 d10 k3, PS) | -29%
11 | TCCGAGCTCGGCCCCC (sugars k3 d10 k3, PS) | -10%
12 | TCCTATTATAGAGCAT (sugars k3 d10 k3, PS) | 3%
13 | TCCTCCACTACCATAT (sugars k3 d10 k3, PS) | -13%
14 | TCCTGTAACGCACCCG (sugars k3 d10 k3, PS) | -13%
15 | TCGAGATCATAGTGCA (sugars k3 d10 k3, PS) | 29%
16 | TCTAACAGATAACGAG (sugars k3 d10 k3, PS) | -3%
17 | TCTATAGTGTTCCAGG (sugars k2 d9 e3 k2, PS) | 50%
18 | TCTATAGTGTTCCAGG (sugars kkdddddddddekeke, PS) | 56% and 50%
19 | TCTGGATGAGCTTACA (sugars k3 d10 k3, PS) | 14%
20 | TCTTTAAAATATCGCC (sugars k3 d10 k3, PS) | -45%
21 | TGACACAGGAGCCGCT (sugars k3 d10 k3, PS) | 15%
22 | TGAGGCATACAGTGTG (sugars k3 d10 k3, PS) | 18%
23 | TGATGTGATAGCTGAG (sugars k3 d10 k3, PS) | 59%
24 | TGATGTGATAGCTGAG (sugars kkdddddddddkekek, PS) | -2%

Same assay, conditions: ASO, MM.1R, 2 µM

Row | Sequence | target mRNA inhibition
25 | TCTATAGTGTTCCAGG (sugars kkdddddddddekeke, PS) | 68%

Same assay, conditions: ASO, SK-MEL-28, 4 µM

Row | Sequence | target mRNA inhibition
26 | TATGACCCAGTGCTCT (sugars k3 d10 k3, PS) | 40%
27 | TATGAGAAACGGCCTG (sugars k3 d10 k3, PS) | 45%
28 | TATTTATGCCCTCGCT (sugars k3 d10 k3, PS) | 26%
29 | TCAAAGCGCACCGCAG (sugars k3 d10 k3, PS) | 43%
30 | TCAAATCTTCAACAGC (sugars k3 d10 k3, PS) | 76%
31 | TCACACTGCCGTGATC (sugars k3 d10 k3, PS) | 22%
32 | TCACAGAGCCAACTTA (sugars k3 d10 k3, PS) | -12%
33 | TCACGAGCACCTCAGA (sugars k3 d10 k3, PS) | 36%
34 | TCACGCAGTGCACCTG (sugars k3 d10 k3, PS) | 46%
35 | TCAGAATTTAGTTAGT (sugars k3 d10 k3, PS) | 33%
36 | TCAGACAGTGCGCCCC (sugars k3 d10 k3, PS) | 26%
37 | TCAGATGTCACTGATT (sugars k3 d10 k3, PS) | 35%
38 | TCAGCAAGTGTCTTCC (sugars k3 d10 k3, PS) | 66%
39 | TCAGTTTGTGAAGCAT (sugars k3 d10 k3, PS) | 75% and 89%
40 | TCATAGCTAGTTCATT (sugars k3 d10 k3, PS) | 52%
41 | TCCAAACCTTAAGCTA (sugars k3 d10 k3, PS) | 37%
42 | TCCACCTGCATCGAGA (sugars k3 d10 k3, PS) | 47%
43 | TCCAGAAAATTCAGCT (sugars k4 d8 k4, PS) | 26%
44 | TCCAGGAAAGGCCAAG (sugars k3 d10 k3, PS) | 49%
45 | TCCAGGTGGCTCAGCA (sugars k4 d8 k4, PS) | 34%

Row | Sequence | target mRNA inhibition
46 | TCCCACGAAGGGCAGT (sugars k3 d10 k3, PS) | 6%
47 | TCCCTTAGGATAATAT (sugars k3 d10 k3, PS) | 48%
48 | TCCGGCTTGTCGATGC (sugars k3 d10 k3, PS) | 41%
49 | TCCTATGCTGAACCCC (sugars k3 d10 k3, PS) | 36%
50 | TCCTCAAAGTCATTGC (sugars k4 d8 k4, PS) | 10%
51 | TCCTCTGGCCATTGTC (sugars k3 d10 k3, PS) | 41%
52 | TCGCATAGAGCCCGTC (sugars k3 d10 k3, PS) | 57%
53 | TCGCATCCAGACCCTT (sugars k3 d10 k3, PS) | 28%
54 | TCGGAACTTTCCTTTA (sugars k3 d10 k3, PS) | 33%
55 | TCGGAGCTGAGGGCAG (sugars k3 d10 k3, PS) | 18%
56 | TCTAAAGTCCCATCGA (sugars k3 d10 k3, PS) | 31%
57 | TCTAATAAATGTGCTC (sugars k3 d10 k3, PS) | 44%
58 | TCTAATCCACAATCAG (sugars k3 d10 k3, PS) | 41%
59 | TCTACAGAACACAAGA (sugars k3 d10 k3, PS) | -8%
60 | TCTACCTACTCCATCA (sugars k3 d10 k3, PS) | 47%
61 | TCTCCCACACCAGCCC (sugars k4 d8 k4, PS) | 25%
62 | TCTCCGCCTCGGCCGC (sugars k3 d10 k3, PS) | 41%
63 | TCTGACAAGAACTGCT (sugars k3 d10 k3, PS) | 12%
64 | TCTGAGACTACACCTA (sugars k3 d10 k3, PS) | 27%
65 | TCTGAGAGCAAATTGA (sugars k3 d10 k3, PS) | 29%

Row | Sequence | target mRNA inhibition
66 | TCTGAGATGTCCAGCT (sugars k3 d10 k3, PS) | 45%
67 | TCTGAGGGTCTGGAAA (sugars k3 d10 k3, PS) | 9%
68 | TCTTTGGGATTCTATA (sugars k3 d10 k3, PS) | 60%
69 | TGAACCCTTCATCAGA (sugars k3 d10 k3, PS) | 48%
70 | TGAAGCAACACGGGAA (sugars k3 d10 k3, PS) | 60%
71 | TGAAGTGCTGTGTGGG (sugars k3 d10 k3, PS) | 57%
72 | TGACTCCATGAGGTTT (sugars k3 d10 k3, PS) | 65%
73 | TGATAAGGCACTACTT (sugars k3 d10 k3, PS) | 35%
74 | TGATAGCTGAGCTGAT (sugars k3 d10 k3, PS) | 37%
75 | TGATGTATACCAACGA (sugars k3 d10 k3, PS) | 62% and 87%
76 | TGCAAAACCAGTACAG (sugars k3 d10 k3, PS) | 28%
77 | TGCAAGCCTCATTCAC (sugars k3 d10 k3, PS) | 42%
78 | TGCACTCGCGCAAAGG (sugars k3 d10 k3, PS) | 28%
79 | TGCATAACACGGTGTT (sugars k3 d10 k3, PS) | 38%
80 | TGCATCTATAAGATGT (sugars k3 d10 k3, PS) | 32%
81 | TGCCACAACTCTCGCC (sugars k3 d10 k3, PS) | 31%
82 | TGCCGCTGTCGATCTG (sugars k3 d10 k3, PS) | 32%
83 | TGCCTCTGTTAGGTGA (sugars k3 d10 k3, PS) | 34%
84 | TGCGAATGTGCCTTGT (sugars k3 d10 k3, PS) | 43%
